The conditions of data set [1]: HOBr versus HOCl, methionine to dehydromethionine; cited from earlier work.
Data set [2] has as its target T1, collagen IV NC1 hexamer (Mus musculus, UniProt P02463+P08122).
T1 sequence (P02463 1445-1669 limits assumed): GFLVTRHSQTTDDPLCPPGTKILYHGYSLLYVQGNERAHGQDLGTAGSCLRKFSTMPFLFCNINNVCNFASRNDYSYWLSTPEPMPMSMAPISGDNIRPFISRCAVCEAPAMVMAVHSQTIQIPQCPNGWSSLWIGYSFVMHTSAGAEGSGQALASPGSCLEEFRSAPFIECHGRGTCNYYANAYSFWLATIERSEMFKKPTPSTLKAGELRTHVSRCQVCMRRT
T1 sequence (P08122 1484-1707 limits assumed): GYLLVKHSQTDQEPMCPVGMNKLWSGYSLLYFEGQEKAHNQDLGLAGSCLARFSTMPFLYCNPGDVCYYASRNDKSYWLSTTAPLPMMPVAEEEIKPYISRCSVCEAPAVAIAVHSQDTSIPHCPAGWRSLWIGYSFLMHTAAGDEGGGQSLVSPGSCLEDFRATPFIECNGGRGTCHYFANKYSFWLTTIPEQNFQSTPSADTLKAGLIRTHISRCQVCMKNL
The experiment in a line: Hypohalous acid oxidation of purified uncrosslinked NC1 hexamer. The following applies: for crosslinked dimeric subunits (percentage of dimeric subunit): 500 nM NC1 hexamer, 5 μM hypohalous acid, 30 min at 37° C. (FIG. 4A).
Method: (FIG. 4A) Five hundred nanomolar collagen IV NC1 hexamer (3 μM potential crosslinks) was incubated alone (control) or with 5 μM hypochlorous (HOCl) or hypobromous acid (HOBr) for 30 min at 37° C. […] (FIGS. 4B-D) 16 nM myeloperoxidase (MPO) (FIG. 4B), eosinophil peroxidase (EPO) (FIG. 4C) or lactoperoxidase (LPO) (FIG. 4D) were reacted with 500 nM NC1 hexamer (3 μM potential crosslinks) for varying time points in 1×PBS with or without 10 μM H2O2. In the case of LPO, all reactions proceeded for 60 min. Collagen IV-sulfilimine crosslink content was visualized after SDS-PAGE and Coomassie blue staining of the reactions. Each gel is representative of three independent experiments. PHG, phloroglucinol; MW, molecular weight.
FIGS. 9A-D. Chemical mechanism of sulfilimine formation within the NC1 hexamer. (FIG. 9A) Purified uncrosslinked NC1 hexamer (5 μM) was reacted for 5 minutes at 37° with the indicated amounts of hypohalous acids and analyzed by SDS-PAGE. […] Values represent mean±S.D. (n=3). (FIG. 7B) Uncrosslinked NC1 hexamer (1.3 μM) in Br-Free PBS was preoxidzed with indicated amounts of HOCl for 1 min at 37 C, followed by post-oxidation with the addition of 8 mol eq. HOBr (or HOCl as a control) which was reacted for an additional minute at 37° C., then quenched with 20 mM methionine. Gel is representative of two experiments (FIG. 9C) XIC analysis of the residual monomeric NC1 subunit following HOCl oxidation (10 mol eq) compared to input NC1 monomer after SDS-PAGE and in-gel trypsin digestion. ^16O addition to the methionine residues was confirmed by MS3 analysis. (FIG. 9D) Met93 oxidation pathway consistent with experimental data and the resultant enthalphic landscape for S═N bond formation within the NC1 hexamer.
(FIG. 15) Fifty micromolar of hypohalous oxidants were added to 5 μM uncrosslinked NC1 domains, and reacted for 5 minutes at 37° C. before quenching by adding L-methionine to 1 mM final concentration. […] Experiments were run in triplicate and analyzed by 12% non-reducing SDS-PAGE and ImageJ.
The efficiency of HOBr as a reagent was compared to other hypohalous acids, during a 5′ reaction with uncrosslinked hexamers containing 5 μM NC1 domains.
The inventors therefore tested the molar efficiency of oxidation of purified uncrosslinked NC1 hexamer with HOCl and HOBr (FIG. 9A). […] To test this, they pretreated uncrosslinked NC1 hexamer with varying concentrations of HOCl, then treated with HOBr. […] As an independent approach to testing the dead-end sulfoxide hypothesis, the inventors pretreated NC1 hexamer with escalating levels of H2O2, a reagent known to generate methionine sulfoxides (Liang et al., 2012). […] They next decided to directly visualize the peptide containing Met93, the S donor of the S═N bond, within the residual monomeric NC1 fraction after HOCl oxidation and compare its oxidation status to untreated NC1 hexamer.

The test system of another data set is PFHR-9 cells. Description: Collagen IV sulfilimine crosslink formation in PFHR-9 cell culture (NC1 hexamer, SDS-PAGE). The format is cell-based, mouse. To be noted: inhibitor present during cellular deposition of basement membrane; FIG. 2A: PHG 50 μM, MMI 1 mM, KI 10 mM, 3-AT 10 mM, BAPN 500 μM, putrescine 2.5 mM.
The next data set relates to transglutaminase. To be noted: Candi et al., 1995; cited from earlier work.
The target in a further data set is T2, Lysyl oxidase (Bos taurus, UniProt P33072).
T2 sequence (P33072 170-418): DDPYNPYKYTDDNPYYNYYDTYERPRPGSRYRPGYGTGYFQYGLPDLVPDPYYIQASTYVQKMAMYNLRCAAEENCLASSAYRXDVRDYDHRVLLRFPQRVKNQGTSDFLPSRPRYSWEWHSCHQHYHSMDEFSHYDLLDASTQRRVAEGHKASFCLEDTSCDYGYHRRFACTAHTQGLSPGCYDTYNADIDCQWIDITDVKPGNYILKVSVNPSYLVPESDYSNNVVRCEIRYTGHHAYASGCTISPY
The following applies: Tang et al., 1983; cited from earlier work.

Data set [3] deals with collagen IV NC1 hexamer. The experiment in a line: Purified peroxidases reacted with uncrosslinked NC1 hexamer and H2O2. In kind it is biochemical, mouse. To be noted: 16 nM enzyme, 500 nM NC1 hexamer, 10 μM H2O2, 1×PBS. On the procedure:
(§1) (FIG. 3A) SDS-PAGE of reactions consisting of 16 nM purified human peroxidasin (PXDN), 500 nM monomeric NC1 hexamer (3 μM potential crosslinks) and 10 μM H2O2 in 1×PBS. Control reactions without H2O2 or in the presence of the peroxidase inhibitor phloroglucinol (PHG; 50 μM) were also conducted. D represents crosslinked dimeric NC1 subunits, and M denotes uncrosslinked monomeric subunits. MW, molecular weight. (FIG. 3B) Coomassie blue-stained gel after SDS-PAGE of collagen IVNC1 hexamer is shown to illustrate relative amounts of sulfilimine-crosslinked dimeric (D) and uncrosslinked monomeric (M) subunits after incubation of uncrosslinked PFHR-9 basement membranes in varying buffer halide concentrations (Br— or Cl— as K+ salt) with or without 1 mM H2O2. (FIG. 3C) PXDN-mediated hypohalous acid (HOX) production expressed as nmol hypohalous acid generated per nmol enzyme per min, measured in 1×PBS plus 100 μM NaBr. Values represent mean±s.e.m. (n=3). (FIG. 3D) HOCl production measured directly in 1×PBS without added Br—. Values denote mean±s.e.m. (n=4). […] (FIG. 3E) HOX production, measured in nmol HOX generated per nmol enzyme per min for myeloperoxidase (MPO), eosinophil peroxidase (EPO) or LPO in 1×PBS plus 100 μM NaBr. Values represent mean±s.e.m. (n=3).
PHG, phloroglucinol; MW, molecular weight.
If peroxidasin uses hypohalous acids as intermediates to form sulfilimine bonds, these intermediates should recapitulate the reaction when directly added to purified, uncrosslinked collagen IV NC1 hexamer. […] Alternatively, other peroxidasesis provided to form reactive hypohalous acids.

Data set [4] in a line: Hypohalous acid production by peroxidases (taurine haloamine trapping). The format is biochemical. The following applies: 1×PBS plus 100 μM NaBr or without added Br—. On the procedure:
as §1
Hypohalous acids were trapped as stable taurine haloamines, which oxidize tetramethylbenzidine to yield a colorimetric measure of hypohalous acid concentration and production (Dypbukt et al., 2005).
Animal heme peroxidases, such as peroxidasin, myeloperoxidase, eosinophil peroxidase and lactoperoxidase, catalyze oxidative reactions using distinct halogenation and peroxidase cycles (Obinger, 2006). Both begin with hydrogen peroxide oxidation of the prosthetic heme iron to form an intermediate denoted compound I (Obinger, 2006). Compound I may oxidize halides into their respective hypohalous acids (or related oxidants in equilibrium), which may directly or indirectly halogenate susceptible moieties. Alternatively, compound I undergoes sequential reduction to form single electron-free radicals of energetically favorable substrates in the peroxidase cycle. Both pathways eventually regenerate reduced, native enzyme (Obinger, 2006). To determine whether peroxidasin forms sulfilimine bonds using a halogenation cycle, the inventors first tested whether peroxidasin crosslinks collagen IV in the absence of halides.

A short description of data set [5]: Peroxidase activity of media from transfected cells (tetramethylbenzidine colorimetric assay). In kind it is biochemical. To be noted: media of transiently transfected HEK293T cells. On the procedure:
FIGS. 5A-D—Peroxidasin uniquely crosslinks native collagen IV networks. (FIG. 5A) Experimental design of ‘overlay’ experiments. PFHR-9 cells were grown in the presence of phloroglucinol (PHG; 50 μM) to deposit uncrosslinked collagen IV (Col IV) networks. The cells were then removed, and the basement membrane was extracted with 4 M guanidine (Gdn) to inactivate endogenous peroxidasin. Cells stably transfected with human peroxidasin (PXDN) or untransfected HEK293 cells (WT HEK) were plated on top of the PFHR9 basement membrane, which was subsequently analyzed for collagen IV crosslink content. (FIG. 5B) Collagen IV-sulfilimine bond formation in the indicated experimental conditions as shown by stained SDS-PAGE gel. Two (WT HEK cells) or three (PXDN, with or without PHG) out of five independent experiments are shown. MW, molecular weight. (FIG. 5C) Coomassie blue-stained gel of collagen IVNC1 hexamers isolated from uncrosslinked PFHR-9 basement membrane overlaid with HEK293T cells transiently transfected with human peroxidasin cDNA, mouse myeloperoxidase cDNA (MPO), mouse lactoperoxidase cDNA (LPO) or empty vector (Mock). (FIG. 5D) Media from PXDN, MPO, LPO and mock-transfected cells were assayed for peroxidase activity using a tetramethylbenzidine-based colorimetric assay. Activity was expressed relative to peroxidasin (A650 of given peroxidase divided by A650 for peroxidasin). […]

For the molecule `OBr` [HOBr, hypobromous acid], the “effectiveness at forming a sulfilimine bond” value in data set [1] is on record as “approximately twice as effective as HOCl”. Moreover, the “crosslinked dimeric subunits (percentage of dimeric subunit)” value is “increased significantly” on collagen IV NC1 hexamer [2] and “yielded crosslinked dimeric subunits” at collagen IV NC1 hexamer [2] (listed as hypobromous acid). For the same molecule, the “dimer formation, molar efficiency of oxidation” value on collagen IV NC1 hexamer [2] (5 μM NC1 hexamer, 5 minutes at 37° (FIG. 9A)) was “efficiently formed dimers even at parity with NC1 concentrations”. Also, the “efficiency versus other hypohalous acids in forming sulfilimine bonds” value on collagen IV NC1 hexamer [2] (5 min reaction, 5 μM NC1 domains) is “superior to all other examined reagents”. The “S═N bond formation as share of total Met93 oxidized” value at collagen IV NC1 hexamer [2] (oxidation event 1 (OE1), S—Cl or S—Br halosulfonium intermediate) amounted to 56.1%.
The Km is the concentration of substrate that gives half-maximal velocity. For the molecule `NCCCCN` [putrescine], the “formation of collagen IV crosslinks” value in the data set on PFHR-9 cells is “had no effect”. The Michaelis-Menten constant (Km) in the data set with transglutaminase was 26 to 847 µM.
By IC50 is commonly meant the concentration needed to halve the response being measured. Regarding `N#CCCN` [β-aminopropionitrile], in the data set on PFHR-9 cells, the “formation of collagen IV crosslinks” value was “had no effect”. For the same molecule, the IC50 on Lysyl oxidase is 3 to 8 µM.

B1: myeloperoxidase: animal heme peroxidase used as comparator (protein, UniProt P05164 165-745, looked up)
Myeloperoxidase: VTCPEQDKYRTITGMCNNRRSPTLGASNRAFVRWLPAEYEDGFSLPYGWTPGVKRNGFPVALARAVSNEIVRFPTDQLTPDQERSLMFMQWGQLLDHDLDFTPEPAARASFVTGVNCETSCVQQPPCFPLKIPPNDPRIKNQADCIPFFRSCPACPGSNITIRNQINALTSFVDASMVYGSEEPLARNLRNMSNQLGLLAVNQRFQDNGRALLPFDNLHDDPCLLTNRSARIPCFLAGDTRSSEMPELTSMHTLLLREHNRLATELKSLNPRWDGERLYQEARKIVGAMVQIITYRDYLPLVLGPTAMRKYLPTYRSYNDSVDPRIANVFTNAFRYGHTLIQPFMFRLDNRYQPMEPNPRVPLSRVFFASWRVVLEGGIDPILRGLMATPAKLNRQNQIAVDEIRERLFEQVMRIGLDLPALNMQRSRDHGLPGYNAWRRFCGLPQPETVGQLGTVLRNLKLARKLMEQYGTPNNIDIWMGGVSEPLKRKGRVGPLLACIIGTQFRKLRDGDRFWWENEGVFSMQQRQALAQISLPRIICDNTGITTVSKNNIFMSNSYPRDFVNCSTLPALNLASWREAS
For the molecule B1, the “formation of sulfilimine crosslinks in NC1 hexamer” value in the data set with collagen IV NC1 hexamer [3] was “formed sulfilimine crosslinks in collagen IV”. Further, the hypohalous acid formation result in data set [4] is on record as “preferentially formed hypochlorous acid”. In addition, the “enzymatic activity relative to peroxidasin” value in data set [5] is “at least 30 fold”.

The record behind these values is patent US10183039B2, “Methods for the production of collagen IV” (Vanderbilt University, priority 2013, dated 2019).
